{"source": "patent US10925851B2", "about": "(Regents of the University of Minnesota, priority 2018, dated 2021)", "key": {"mice [1]": {"tested_on": "mice", "experiment": "Combination therapy with morphine, isobolographic analysis in tail-flick assay", "settings": "for Dose Reduction Index (DRI) Tosedostat: in combination with morphine; for ED50: Mus musculus, ip"}, "mice [2]": {"tested_on": "mice", "experiment": "Co-administration of opioid antagonist naloxone in hot-plate and tail-flick assays", "assay_type": "in vivo, mouse", "protocol": "Naloxone dissolved in saline was either administered subcutaneously (s.c.; dosage: 5 mg/Kg) via an injection to the interscapular skin, or it was given intracerebroventricularly (5 μg per mouse).\nNaloxone is a broad-spectrum opioid receptor antagonist. It is known to interact with, mu- (μ-), delta- (δ-), and kappa- (κ-) opioid receptors, with highest affinity for the μ receptors. […] Naloxone dissolved in saline was delivered subcutaneously (s.c.) via an injection to the interscapular skin.\n5 mg/Kg naloxone dissolved in saline was administered subcutaneously (s.c.) via an injection to the interscapular skin. Analgesic efficacy for various time-points was determined in hot-plate and tail-flick assays as detailed above."}, "Neprilysin (NEP)": {"molecular_target": "T1, Neprilysin (NEP) (Homo sapiens, UniProt P08473)", "T1 construct": "purchased Enzo Life Sciences", "T1 sequence (P08473 whole entry, species assumed)": "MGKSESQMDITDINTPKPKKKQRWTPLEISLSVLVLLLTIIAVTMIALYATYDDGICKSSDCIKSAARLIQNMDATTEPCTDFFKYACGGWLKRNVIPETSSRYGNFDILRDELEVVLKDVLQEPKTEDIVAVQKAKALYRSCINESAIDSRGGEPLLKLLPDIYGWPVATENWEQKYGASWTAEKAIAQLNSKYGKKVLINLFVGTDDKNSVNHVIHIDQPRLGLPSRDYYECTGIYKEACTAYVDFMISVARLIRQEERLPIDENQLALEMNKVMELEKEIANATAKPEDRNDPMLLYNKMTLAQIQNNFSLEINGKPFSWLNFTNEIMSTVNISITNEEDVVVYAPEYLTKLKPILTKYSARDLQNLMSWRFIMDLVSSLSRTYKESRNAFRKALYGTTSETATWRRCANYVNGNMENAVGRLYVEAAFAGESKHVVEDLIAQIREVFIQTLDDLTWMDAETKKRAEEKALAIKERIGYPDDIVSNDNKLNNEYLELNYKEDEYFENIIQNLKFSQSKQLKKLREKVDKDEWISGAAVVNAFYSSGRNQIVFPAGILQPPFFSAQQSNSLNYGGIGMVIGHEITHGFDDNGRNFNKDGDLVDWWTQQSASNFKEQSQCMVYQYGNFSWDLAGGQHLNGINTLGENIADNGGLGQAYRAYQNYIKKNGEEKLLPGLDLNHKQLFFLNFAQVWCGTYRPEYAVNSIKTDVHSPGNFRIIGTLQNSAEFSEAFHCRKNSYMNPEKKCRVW", "experiment": "Neprilysin inhibition assay (Mca-[…](Dpn) FRET substrate)", "assay_type": "biochemical", "protocol": "Single concentration studies at 10 μM: Neprilysin inhibition assays were performed as described previously. The substrate Mca-[…](Dpn) and endopeptidase NEP were purchased from Enzo Life Sciences. […] Plate was mixed with a plate shaker at 1500 rpm for 30 seconds. The reaction was started with the addition of 6 μM of the FRET substrate and mixed for another 30 seconds at 1500 rpm. Mca fluorescence is quenched by Dpn until cleavage at Phe by NEP. The accumulation of the Mca was measured by exciting at 320 nm and reading the fluorescence at 405 nm on a Molecular Devices M5e plate reader for 40 minutes at room temperature. Percent inhibition is calculated in GraphPad Prism software using slopes in the linear range for each inhibitor at 10 μM.\nDose-Response Studies for NEP: Neprilysin inhibition assays were performed as described previously. The substrate Mca-[…](Dpn) and endopeptidase NEP were purchased from Enzo Life Sciences. Briefly, 0.5 nM NEP was incubated with 0.5 μL inhibitor. Compounds were tested at 3× dilutions from 100 μM final concentration in 50 mM HEPES pH 6.5 in 50 μL total volume in a black 384-well plate. Plate was mixed with a plate shaker at 1500 rpm for 30 seconds. The reaction was started with the addition of 6 μM of the FRET substrate and mixed for another 30 seconds at 1500 rpm. Mca fluorescence is quenched by Dpn until cleavage at Phe by NEP. The accumulation of the Mca was measured by exciting at 320 nm and reading the fluorescence at 405 nm on a Molecular Devices M5e plate reader for 40 minutes at room temperature. Steady state velocities were used to determine IC50 values by fitting the velocities vs. inhibitor concentration to the sigmoidal concentration-response curve (variable slope) using GraphPad Prism."}, "[3]": {"experiment": "Distribution of tosedostat in brain and plasma (LC-MS/MS)", "assay_type": "in vivo, mouse", "settings": "10 mg/Kg i.p., over 4 hours", "protocol": "The subjects were intraperitoneally injected with ketamine-xylazine cocktail (100 mg/kg ketamine+10 mg/kg xylazine) 2 minutes prior to the time-point being analyzed. Specifically, samples were collected at 0.25, 0.5, 1, 2, and 4 hours after the drug administration. […] Samples were immediately centrifuged at 3000×rpm for 10 minutes at 4° C. and the separated top plasma layer was transferred into a new tube. Blood samples stored at −80° C. until LC-MS/MS analysis. For brain samples, brain tissue was extracted from the animal and washed with copious volumes of ice-cold D-PBS for removal of blood from the sample. and Collect brain and wash the brain with ice-cold DPBS properly to remove blood. The sample was then gently wiped with absorbent paper, weighed, and transferred into a 15 mL tube. The brain samples were homogenized by adding 1:5 (w/v) of ice-cold D-PBS into the tube and using mechanical homogenizer on them. Homogenized brain samples were also stored at −80° C.\nLC-MS/MS analysis: Frozen plasma and brain homogenate samples were thawed and rapidly quenched as detailed here. For plasma samples, 30 μL of DMSO and 60 μL of acetonitrile containing 0.1% formic acid were added to 30 μL of each unknown thawed plasma sample. For brain homogenate samples, 10 μL of DMSO and 60 μL of acetonitrile containing 0.1% formic acid were added to 30 μL of each unknown sample. […]"}}, "note": "Values joined by “and” are separate entries in the source; they are usually repeats but may differ in a detail not shown here. Identical values can stand only once. Like-named read-outs stand apart in the source and are kept apart here."}
{"smiles": "CC(C)C[C@@H](C(=O)N[C@H](C(=O)OC1CCCC1)c1ccccc1)[C@H](O)C(=O)NO", "note": "[Tosedostat]", "values": [{"measurement": "Dose Reduction Index (DRI) Tosedostat", "setting": "mice [1]; 15 min", "value": 2.52}, {"measurement": "Dose Reduction Index (DRI) Tosedostat", "setting": "mice [1]; 30 min", "value": 1.91}, {"measurement": "Dose Reduction Index (DRI) Tosedostat", "setting": "mice [1]; 45 min", "value": 1.79}, {"measurement": "Dose Reduction Index (DRI) Tosedostat", "setting": "mice [1]; 60 min", "value": 2.21}, {"measurement": "ED50", "setting": "mice [1]; 0.25 h, read-out: Tosedostat ED50 (±SEM)", "value": "89 ± 109", "unit": "mg/kg"}, {"measurement": "ED50", "setting": "mice [1]; 0.5 h, read-out: Tosedostat ED50 (±SEM)", "value": "85.8 ± 132", "unit": "mg/kg"}, {"measurement": "ED50", "setting": "mice [1]; 0.75 h, read-out: Tosedostat ED50 (±SEM)", "value": "71.5 ± 47.6", "unit": "mg/kg"}, {"measurement": "ED50", "setting": "mice [1]; 1 h, read-out: ED50, given alone", "value": "58.1 to 82", "unit": "mg/kg"}, {"measurement": "ED50", "setting": "mice [1]; 1 h, read-out: Tosedostat ED50 (±SEM)", "value": "97.3 ± 33.6", "unit": "mg/kg"}, {"measurement": "effect of centrally administered naloxone on analgesic response of tosedostat", "setting": "mice [2]; tosedostat 58.1 mg/Kg i.p. + naloxone 5 μg per mouse i.c.v.", "value": "no attenuation of analgesic response"}, {"measurement": "effect of subcutaneous naloxone on analgesic action of tosedostat", "setting": "mice [2]; tosedostat 58.1 mg/Kg i.p. + naloxone 5 mg/Kg s.c.", "value": "partially blocked the analgesic action"}, {"measurement": "IC50", "setting": "Neprilysin (NEP); dose response, 3x dilutions from 100 μM", "value": "900 nM and 890 nM"}, {"measurement": "inhibition at 10 µM", "setting": "Neprilysin (NEP); inhibitor 10 μM, read-out: NEP @ 10 μM (percent inhibition)", "value": 79, "unit": "%"}, {"measurement": "presence in brain homogenate compared to plasma samples", "setting": "[3]", "value": "minimal presence of tosedostat in the brain homogenate samples"}]}
